Tests used:
THP-1 cells = assay: THP-1 anti-proliferation assay (Cell Titer GLO, 72 hr); assay type: cell-based; conditions: Homo sapiens
Description: The inhibition of eukaryotic cell culture growth was established using THP-1 cells (ATCC Cat. #TIB-202), a human acute monocytic leukemia cell line. These are suspension cells. This cell-based assay for eukaryotic culture growth inhibition was performed in 384-well plate format to determine the in vitro cytotoxicity of the test compounds.
Compounds were solubilized in water. Compounds were diluted 1:2 in assay media and 1:2 serial dilutions were performed in 50:50 media:water mix. The high dose was 40 μM, 10% water final. 5 μL of compound at 5× the final concentration was dispensed to the 384 assay plate. 20 μL of THP-1 cells were added.
Compounds were plated in dose response format (10% water final concentration), followed by the addition of cells. Cells were grown and incubated with compounds in RPMI-1640 medium/pen/strep/L-glutamine/10% FBS/2-mercaptoethanol for 72 hr at 37° C. with 5% CO2. At the end of the incubation time, cells were assayed for viability using Cell Titer GLO (Promega).

MV4-11 cell line = assay: MV4-11 anti-proliferation assay (CellTiterGlo, 72 hour); assay type: cell-based; conditions: Homo sapiens, MV4-11 cells
Description: MV4-11 cell line (MV-4-11, CRL-9591™) was obtained from American Type Culture Collection (ATCC). Cells were grown in a T-75 flask in RPMI Medium (GIBCO, Catalog No. 11875-093) containing 10% fetal bovine serum (ATCC, Catalog No. 30-2020) and penicillin-streptomycin (ATCC, Catalog No. 30-2300) at 37° C. in a humidified, 5% CO2 incubator.
(§1) 50 μL of cells (10,000 cells/well) were plated in a 96-well plate and incubated overnight at 37° C. in a humidified, 5% CO2 incubator. The next day, 50 μL of medium containing 3-fold serially diluted compounds in duplicate was added to the wells such that the starting concentration of the compound in the first pair of the wells was 10 μM. After 72 hour incubation with the compound, cell viability was measured in a luminometer after the addition of 100 μL/well CellTiterGlo reagent (Promega) as recommended by the manufacturer. The IC50 values for the compounds were calculated using SoftMax software.

MOLT4 cell line = assay: Proliferation assay in MOLT4 cell line (CellTiterGlo, 72 hour); assay type: cell-based; conditions: Homo sapiens, MOLT-4, MOLT4 cells
Description: (§2) Compounds 1, 2, 3a, 4a and 5 as well as certain Compound included in FIGS. 15A-15M, 16A-16F and 17A-17D were tested in the following cell lines: MOLT4 and K562. Compounds 1, 2, 3a, 4a and 5 were also tested in the cell line HL60.
(§3) The MOLT4 cell line (CRL-1582™) and K562 cell line (CCL-243™) were obtained from American Type Culture Collection (ATCC). They were grown in a T-75 flask in RPMI Medium (GIBCO, Catalog No. 11875-093) containing 10% fetal bovine serum (ATCC, Catalog No. 30-2020) and penicillin-streptomycin (ATCC, Catalog No. 30-2300) at 37° C. in a humidified, 5% CO2 incubator. The HL60 cell line (CCL-240™) was obtained from American Type Culture Collection (ATCC). They were grown in a T-75 flask in DMEM Medium (GIBCO, Catalog No. 11965-092) containing 20% fetal bovine serum (ATCC, Catalog No. 30-2020) and penicillin-streptomycin (ATCC, Catalog No. 30-2300) at 37° C. in a humidified, 5% CO2 incubator.
as §1, with “(8,500” for “(10,000”

K562 cell line = assay: Proliferation assay in K562 cell line (CellTiterGlo, 72 hour); assay type: cell-based; conditions: Homo sapiens, K562 cells
Description: as §2, §3
as §1, with “(8,500” for “(10,000”

HL60 cell line = assay: Proliferation assay in HL60 cell line (CellTiterGlo, 72 hour); assay type: cell-based; conditions: Homo sapiens, HL-60, HL60 cells
Description: as §2, §3
as §1, with “(8,500” for “(10,000”

[1] = test system: AML ex-vivo bone marrow samples; assay: Antiproliferative activity against 15 AML ex-vivo bone marrow samples (Vivia's Native Environment cell depletion assay); assay type: cell-based, human; conditions: 48 hours post drug exposure
Description: Antiproliferative activity of Compound 3a and cytarabine was measured against 15 AML ex-vivo bone marrow samples (including two cytarabine-resistant samples). The assay used was Vivia's Native Environment cell depletion assay. An outline of the study is below: • Five different concentrations of each drug was used as a monotherapy • The incubation time point for measurement was 48 hours post drug exposure The results are shown graphically in FIG. 6.

[2] = test system: subcutaneous MV4-11 leukemia model; assay: MV4-11 xenografts: in vivo anti-tumor efficacy in CB17 SCID mice; parameters: species or system mouse; conditions: for tumor response: dosed at maximum tolerated dose, cytarabine 100 mg/kg I.P. QD, tigecycline 50 mg/kg I.P. BID
Description: The in vivo anti-tumor efficacy of Compounds 3a, 4a and 5 in the subcutaneous MV4-11 leukemia model in CB17 SCID mice was tested.
The MV4-11 cells (ATCC-CRL-9591) were maintained in vitro as a suspension culture at a density of 0.2-1.5×10^6 cells/ml in RPMI1640 medium supplemented with 10% heat inactivated fetal bovine serum, 100 U/ml penicillin and 100 μg/ml streptomycin at 37° C. in an atmosphere of 5% CO2 in air. The tumor cells were routinely subcultured twice weekly. The cells growing in an exponential growth phase were harvested and counted for tumor inoculation.
CB17 SCID, female, 6-8 weeks, weighing approximately 18-22 g.
Each mouse was inoculated subcutaneously at the right flank with MV4-11 tumor cells (10×10^6) in 0.2 ml of PBS (with Matrigel 1:1) for tumor development. The animals were randomized and treatment was started when the average tumor volume reached approximately 150-200 mm^3 for the efficacy study. The test article administration and the animal numbers in each group are shown below.
The major endpoint monitored was tumor growth delay or cure. Tumor sizes were measured twice weekly in two dimensions using a caliper, and the volume expressed in mm^3 using the formula: V=0.5 a×b^2 where a and b are the long and short diameters of the tumor, respectively. The tumor sizes were then used for the calculations of both T-C and T/C values. T-C is calculated with T as the median time (in days) required for the treatment group tumors to reach a predetermined size (e.g., 1,000 mm^3), and C is the median time (in days) for the control group tumors to reach the same size. […]
TGI was calculated for each group using the formula: TGI (%)=[1−(Ti−T0)/(Vi−V0)]×100; Ti is the average tumor volume of a treatment group on a given day, T0 is the average tumor volume of the treatment group on the first day of treatment, Vi is the average tumor volume of the vehicle control group on the same day with Ti, and V0 is the average tumor volume of the vehicle group on the first day of treatment.

[3] = test system: mitochondrial protein synthesis; assay: Intact isolated rat heart mitochondrial protein synthesis assay ([S35]-methionine incorporation); assay type: biochemical; conditions: isolated rat heart mitochondria, 0.15 to 40 μM; read-out: dose-response curve IC50, mitochondrial protein synthesis
Description: The effect of Compound 3a on mitochondrial protein synthesis was determined using an intact isolated rat heart mitochondrial protein synthesis assay previously described [See, 1, 2 below]. Intact, highly coupled mitochondria isolated from normal rat hearts were incubated in an incubation medium containing [S^35]-methionine. The compounds were diluted to generate a final dose-response curve from 0.15 to 40 μM. The rate of incorporation of [S^35]-methionine into protein was measured at 20, 40, and 60 minutes of incubation for each sample using a filter paper disc assay and expressed as pmol methionine incorporated per mg mitochondrial protein as described [1, 2, 3 below]. The time course data for control and all drug concentrations were nearly linear. The slope of each time-course data plot is calculated as the least squares best fit line through zero and the three time points for each sample. The rate of protein synthesis varies modestly with each mitochondrial preparation (mean and SEM=20.3+/−2.4 pm/mg protein). To normalize for this variability, the rates were expressed as a percent of the rate of the control line for each preparation of mitochondria.
Each experiment was repeated three times.
Dose-response curves were obtained by expressing the percent of control obtained for each concentration of Compound 3a against the concentration of Compound 3a. […]

Row | SMILES | IC50 (THP-1 cells) | IC50 (MV4-11 cell line) | IC50 (MOLT4 cell line) | IC50 (K562 cell line) | IC50 (HL60 cell line) | ex vivo activity against the tumor cells from frozen bone marrow of the AML patients ([1]; monotherapy) | EC50 ([1]; Homo sapiens, 15 AML ex-vivo bone marrow samples) | tumor shrinkage ([2]; all animals treated, 12.5 mg/kg I.P., dose 1 and dose 2 of Table 1C) | IC50 [3] | tumor response [2]
1 | CCN[C@@H]1C(O)=C(C(N)=O)C(=O)[C@@]2(O)C(O)=C3C(=O)c4c(O)cc([C@@H]5CCCN5CC)c(OC)c4C[C@H]3C[C@@H]12 (single isomer, unassigned) [Compound 4a] | 0.9 µM | 0.13 µM | 0.13 µM | 0.13 µM | 0.41 µM | – | – | – | – | –
2 | CCN1CCC[C@H]1c1cc(O)c2c(c1OC)C[C@H]1C[C@H]3[C@H](N)C(O)=C(C(N)=O)C(=O)[C@@]3(O)C(O)=C1C2=O [Compound 3a] | 0.75 µM | 0.1 µM | 0.12 µM | 0.11 µM | 0.37 µM | potent ex vivo activity | 170 nM | ≥ 70% | 700 nM | –
3 | NC(=O)C1=C(O)[C@@H](N)[C@@H]2C[C@@H]3Cc4c(F)cc(NC(=O)CN5CCCC5)c(O)c4C(=O)C3=C(O)[C@]2(O)C1=O [Compound 5] | 0.64 µM | 0.17 µM | 0.13 µM | 0.16 µM | 0.51 µM | – | – | – | – | –
4 | Nc1ccn([C@@H]2O[C@H](CO)[C@@H](O)[C@@H]2O)c(=O)n1 [Cytarabine] | – | – | – | – | – | – | – | – | – | no tumor response
5 | CN(C)c1cc(NC(=O)CNC(C)(C)C)c(O)c2c1C[C@H]1C[C@H]3[C@H](N(C)C)C(O)=C(C(N)=O)C(=O)[C@@]3(O)C(O)=C1C2=O [Tigecycline, tigecycline, reference compound] | 29.1 µM | 4.64 µM | 5.1 µM | 7.2 µM | 15.4 µM | – | – | – | – | no tumor response

— patent US20230031954A1, “TETRACYCLINE COMPOUNDS AND METHODS OF TREATMENT” (Tetraphase Phamaceuticals, Inc., priority 2016, published 2023)
